Where two headings read alike, the source gives them in different places.
Target: T1, human Estrogen receptor alpha (ERα) (Homo sapiens, UniProt P03372)
T1 construct: expressed in transfected cells; host or cells: GeneBLAzer ER-α-UAS-bla GripTite 293 cells (stably integrated)
T1 sequence (P03372 311-547 limits assumed): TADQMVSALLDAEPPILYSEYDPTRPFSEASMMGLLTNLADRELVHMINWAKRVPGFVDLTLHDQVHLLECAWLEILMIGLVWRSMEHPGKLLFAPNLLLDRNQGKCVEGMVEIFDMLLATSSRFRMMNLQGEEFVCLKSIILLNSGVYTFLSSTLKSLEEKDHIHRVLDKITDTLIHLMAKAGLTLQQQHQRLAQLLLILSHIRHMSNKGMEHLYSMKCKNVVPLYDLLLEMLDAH
Assay: GeneBLAzer Cell-Based Nuclear Receptor Assay (beta-lactamase reporter), ER-α-UAS-bla GripTite 293 cells
Conditions: for estrogenic activity on ERα cells compared with BPA, BPS and BP: in words
Method: The response value “EC50” was measured by using the GeneBLAzer® Cell-Based Nuclear Receptor Assay technology which uses the GeneBLAzer®.
The monomers (see Table 7) were dissolved in 100% biological-grade DMSO at a concentration of 7 to 250000 nM (nanomolar). The ER-α-UAS-bla GripTite™ 293 cells were used to measure EC50. The higher the EC50 value is, the weaker the estrogenic agonist activity is for the monomer tested.
The GeneBLAzer® ER-α-UAS-bla GripTite™ cells contain a ligand-binding domain (LBD) of the human Estrogen receptor alpha (ERα) fused to a DNA-binding domain of GAL4 plasmid stably integrated in the GeneBLAzer® UAS-bla GripTite™ cell line. The GeneBLAzer® UAS-bla GripTite™ cells stably express a beta-lactamase reporter gene under the transcriptional control of an upstream activator sequence (UAS). When an estrogenic agonist binds to the LBD of the GAL4 (DBD)-ER α (LBD) fusion protein, the protein binds to the UAS, resulting in expression of beta-lactamase.

[1] = estrogen agonist activity on ERα cells, read-out: EC50 value
[2] = estrogen agonist activity, ER-α-UAS-bla GripTite 293 cells, monomers in DMSO, 7 to 250000 nM, read-out: EC50 (nM) response value to the estrogen receptor alpha

## Oc1cccc2c(O)cccc12 [1,5-NDO, 1,5 Naphthalene diol]
[1]
  EC50: ≥ 30000 nM
[2]
  EC50: > 79100 nM
  estrogenic activity on ERα cells compared with BPA, BPS and BP: much lower estrogenic activity

## Oc1cc2ccccc2cc1O [2,3-NDO, 2,3 Napthalene diol]
[1]
  EC50: ≥ 30000 nM
[2]
  EC50: > 79100 nM
  estrogenic activity on ERα cells compared with BPA, BPS and BP: much lower estrogenic activity

## Oc1ccc2ccc(O)cc2c1 [2,7-NDO, 2,7 Napthalene diol]
[2]
  EC50: 32000 nM
  estrogenic activity on ERα cells compared with BPA, BPS and BP: much lower estrogenic activity

## O=S(=O)(c1ccc(O)cc1)c1ccc(O)cc1 [BPS, 4,4′-dihydroxydiphenyl sulfone, reference compound]
[2]
  EC50: 791 nM

From patent US20250223404A1, “SHAPED ARTICLE COMPRISING A POLY(ARYL ETHER SULFONE) (PAES) POLYMER AND METHOD OF MAKING USING MELT PROCESSING” (Solvay Specialty Polymers USA, LLC, priority 2022, published 2025)
